# From publication PMC9920254 (Molecules, 2023)
# Values joined by “and” are separate entries in the source; they are usually repeats but may differ in a detail not shown here. Equal values may be shown once. Read-outs that look alike come from different tables or passages of the source.
# How the values were obtained:
# [1] = Metabolite profiling of PND in rat bile, urine, feces and plasma by UHPLC–HRMS; assay type: in vivo; settings: feces
# Experimental: Rats, three animals in each group, were randomly selected and treated with PND orally (3.5 mg/kg) or intravenously (0.35 mg/kg). Blood samples were collected into heparinized tubes by retro-orbital bleeding via capillary tubes under isoflurane anesthesia at 0.33, 3 and 8 h after oral administration and at 0.25, 4 and 8 h after intravenous injection. Plasma was separated by centrifuging the blood samples at 3000 rpm for 10 min. Rats were individually housed in metabolic cages (Tecniplast, Buguggiate, Italia) for collecting urine and feces samples. Additionally, the bile duct of rats under anesthesia with chloral hydrate (10% w/v) were cannulated with a S2-RBDC cannula (Skillsmodel, Beijing) for collecting bile. Urine and feces as well as bile samples were collected pre-dosing and at the following intervals postdosing: 0–2, 2–4, 4–6, 6–8, 8–10, 10–12 (0–12 for feces sample), 12–24, 24–36, 36–48 and 48–72 h. Bile and urine volume was recorded. Feces samples were freeze-dried, weighed, powered, added with water (9 mL/g) and homogenized. All samples were stored at −40 °C until analysis.
# Identification analysis of metabolites in bio-samples was performed as described previously using a Dionex Ultimate 3000 UHPLC system combined with a Q-Exactive Focus Orbitrap mass spectrometer (Thermo Fischer Scientific, MA, USA) fitted with a CORTECS T3 column (2.1 × 150 mm, 2.7 μm; Waters, MA, USA). […]
# [2] = Pharmacokinetic profile of PND in rats with or without ibrutinib (UGTs inhibitor) pretreatment; assay type: in vivo, rat; settings: for Cmax / Tmax: 3.5 mg/kg; for MRT inf: n = 3, read-out: MRT0-∞
# Experimental: Ibrutinib, a broad inhibitor of UGTs, was used to block the metabolism of PND via UGTs. PND and ibrutinib were formulated in PEG 300-water (70%: 30%, v/v) and DMSO-Cremophor EL-water (10%: 30%: 60%, v/v/v), respectively. Rats were pretreated through intraperitoneal (i.p.) injection of ibrutinib (100 mg/kg) or vehicle (three rats per group). After 0.5 h, PND (3.5 mg/kg) were administrated via gavage. Then blood samples were taken into heparinized tubes for separating plasma. Time points included before dosing, at 5, 20 and 45 min and 1.25, 2, 3, 4, 6, 8, 12, 24 and 48 h after dosing. Plasma was separated by centrifuging the blood samples at 3000 rpm for 10 min and then stored at −40 °C until analysis. The plasma samples were analyzed using the reported LC–MS/MS method as described in our previous study.
# Figures and statistics were plotted and calculated using GraphPad Prism (version 8.4.3) and Microsoft Excel (version 2019). Metabolic pathways were illustrated with ChemBioDraw Ultra (version 13.0). Pharmacokinetic parameters were estimated using non-compartmental methods (WinNonlin version 2.0, Pharsight Co., Certara, NJ, USA). All pharmacokinetic parameters were given as the mean ± standard deviation. All statistical analyses were performed using SAS (version 9.4; SAS Institute Inc., Cary, NC, USA). A p value < 0.05 was considered statistically significant.
# [3] = rat bile, after 72 h of administration via gavage (3.5 mg/kg) and injection (0.35 mg/kg)
# [4] = rat LMs
# [5] = mouse LMs
# [6] = human LMs
# CYPs (rat LMs) = settings: rat LMs (RLM)
# CYPs (mouse LMs) = settings: mouse LMs (MLM)
# CYPs (human LMs) = settings: human LMs (HLM)
# UGTs (rat LMs) = settings: rat LMs (RLM)
# UGTs (mouse LMs) = settings: mouse LMs (MLM)
# UGTs (human LMs) = settings: human LMs (HLM)
# IAV = tested on: IAV; set-up: method as in PMID 32520560; settings: mice, oral dosing; superior to oseltamivir; cited from earlier work
# [7] = set-up: method as in PMID 32520560; settings: cited from earlier work
# CYPs [8] = assay: in vitro; settings: rat, pH 7.4
# CYPs [9] = assay: in vitro; settings: mouse, pH 7.4
# CYPs [10] = assay: in vitro; settings: human, pH 7.4
# [11] = PND i.g 3.5 mg/kg, ibrutinib i.p. 100 mg/kg versus control
# [12] = rat, plasma, oral, PND i.g 3.5 mg/kg after i.p. Ibrutinib (100 mg/kg) pretreatment, Mean ± SD, n = 3
# [13] = rat, plasma, po, PND i.g 3.5 mg/kg, Control, Mean ± SD, n = 3
structure (smiles),measurement,setting,value
"CC(=O)c1cc(C)c(O)c(Cc2[nH]c3ccccc3c2Cc2c(O)c(C)cc(C(C)=O)c2O)c1O [PND, Penindolone]",Detection of PND (M0) in bio-samples,[1],detected in all bio-samples
same,CLz,"[2]; PND i.g 3.5 mg/kg, Control, Mean ± SD, n = 3",14.7 ± 3.67 mL/min/kg
same,Elevation of Cmax of PND after pretreatment with ibrutinib,[2]; [11],18.78%
same,Increase of AUC0–∞ of PND after combination with ibrutinib,[2]; [11],30.56%
same,Cmax,"[2]; rat, plasma, oral, PND i.g 3.5 mg/kg after i.p. Ibrutinib (100 mg/kg) pretreatment, Mean ± SD, n = 3, read-out: Cmax-1",272 ± 36.9 ng/mL
same,Tmax,"[2]; rat, plasma, oral, PND i.g 3.5 mg/kg after i.p. Ibrutinib (100 mg/kg) pretreatment, Mean ± SD, n = 3, read-out: Tmax-1",0.47 ± 0.24 h
same,AUC(0-inf),[2]; [12],5450 ± 2690 ng·h/mL
same,Vd,[2]; [12],15.6 ± 6.42 L/kg
same,half-life,[2]; [12],15.8 ± 9.82 h
same,clearance,"[2]; rat, plasma, oral, PND i.g 3.5 mg/kg after i.p. Ibrutinib (100 mg/kg) pretreatment, Mean ± SD, n = 3, read-out: CLz (converted)",13.5 mL/min/kg
same,MRT inf,"[2]; rat, plasma, oral, PND i.g 3.5 mg/kg after i.p. Ibrutinib (100 mg/kg) pretreatment, Mean ± SD",23.9 ± 12.7 h
same,Cmax,"[2]; rat, plasma, po, PND i.g 3.5 mg/kg, Control, Mean ± SD, n = 3, read-out: Cmax-1",229 ± 128 ng/mL
same,Cmax,"[2]; rat, plasma, po, PND i.g 3.5 mg/kg, Control, Mean ± SD, n = 3, read-out: Cmax-2",197 ± 46.8 ng/mL
same,Tmax,"[2]; rat, plasma, po, PND i.g 3.5 mg/kg, Control, Mean ± SD, n = 3, read-out: Tmax-1",0.61 ± 0.24 h
same,Tmax,"[2]; rat, plasma, po, PND i.g 3.5 mg/kg, Control, Mean ± SD, n = 3, read-out: Tmax-2",6 h
same,AUC(0-inf),[2]; [13],4180 ± 1190 ng·h/mL
same,half-life,[2]; [13],4.87 ± 0.3 h
same,MRT inf,"[2]; rat, plasma, po, PND i.g 3.5 mg/kg, Control, Mean ± SD",12.8 ± 0.22 h
same,Accumulation of PND in bile,[3],2.68–3.35 % of dosing
same,PND metabolized in LMs in the presence of NADPH,"[4]; NADPH, within 1 h, PND 2 µM",Approximately 96%
same,Prototype drug eliminated in the presence of UDPGA,"[4]; UDPGA, PND 2 µM",more than 65%
same,Stability in LMs without co-factors,[4]; without NADPH or UDPGA,stable
same,PND metabolized in LMs in the presence of NADPH,"[5]; NADPH, within 1 h, PND 2 µM",~89%
same,Prototype drug eliminated in the presence of UDPGA,"[5]; UDPGA, PND 2 µM",more than 65%
same,Stability in LMs without co-factors,[5]; without NADPH or UDPGA,stable
same,PND diminished in LM system in the presence of NADPH,"[6]; NADPH, within 60 min, PND 2 µM",Less than 16%
same,Prototype drug eliminated in the presence of UDPGA,"[6]; UDPGA, PND 2 µM",more than 65%
same,Stability in LMs without co-factors,[6]; without NADPH or UDPGA,stable
same,Clint,CYPs (rat LMs),0.073 µL/min
same,Vmax,CYPs (rat LMs),1.11 nmol/(min×mg Protein)
same,Clint,CYPs (mouse LMs),0.069 µL/min
same,Vmax,CYPs (mouse LMs),1.11 nmol/(min×mg Protein)
same,Clint,CYPs (human LMs),0.013 µL/min
same,Vmax,CYPs (human LMs),1.28 nmol/(min×mg Protein)
same,Clint,UGTs (rat LMs),0.030 µL/min
same,Km,UGTs (rat LMs),46.7 µM
same,Vmax,UGTs (rat LMs),1.38 nmol/(min×mg Protein)
same,Clint,UGTs (mouse LMs),0.198 µL/min
same,Km,UGTs (mouse LMs),31.6 µM
same,Vmax,UGTs (mouse LMs),6 nmol/(min×mg Protein) and 6.25 nmol/(min×mg Protein)
same,Clint,UGTs (human LMs),0.089 µL/min
same,Km,UGTs (human LMs),23.4 µM
same,Vmax,UGTs (human LMs),2.08 nmol/(min×mg Protein)
same,Protection against IAV-induced death and weight loss,IAV,protect mice against IAV-induced death and weight loss
same,Bioavailability,[7],low
same,Km,CYPs [8],15.2 µM
same,Km,CYPs [9],16.1 µM
same,Km,CYPs [10],97.7 µM
